Laboratory results from ChEMBL document CHEMBL1201862, “PubChem BioAssay data set” (2004).
The source made the active and inactive calls.

Columns and labels:
cells [1] = conditions: HEK293;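 further: cells exposed to compound for 48 hours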
[2] = HepG2 cell cytotoxicity, dose response, cytotoxicity control, plate reader, dry powder, set 6 (AID 743311); assay type: functional, cell-based
[3] = cytotoxicity toward HCT116 cells – cell-based, CellTiter-Glo luminescence, IC50, dose response (AID 1117332); assay type: functional; conditions: HCT-116
[4] = CellTiter-Glo luminescent dose response of DLD-1 viability loss (AID 1117352); assay type: functional
[5] = cytotoxicity toward Colo320 cells – cell-based, CellTiter-Glo luminescence, IC50, dose response (AID 1117334); assay type: functional; conditions: COLO 320
[6] = Concentration-dependent survival of SW480 colon cancer line, luminescence detection with CellTiter-Glo, half-maximal inhibitory concentration (AID 1117338); assay type: functional
[7] = SNU-C1 cell viability reduction, dose response, CellTiter-Glo luminescence (AID 1117323); assay type: functional, cell-based
[8] = RKO cell viability reduction, dose response, CellTiter-Glo luminescence (AID 1117322); assay type: functional
[9] = HCT116 cell viability decrease, GSK3B pretreatment – CellTiter-Glo, IC50, dose response (AID 1117339); assay type: functional; conditions: HCT-116
[10] = Vero cell cytotoxicity, dose response, cytotoxicity control for Vif-APOBEC3G degradation inhibitor project, Vero cells (AID 1117358); assay type: functional; conditions: Human immunodeficiency virus 1, Vero
[11] = molecular target: T1, Oxysterols receptor LXR-beta (Homo sapiens, UniProt P55055); experiment: LXR agonists, Gal4 luciferase reporter, dose response, counter-screen for ssDAF-12 agonist project, cell-based, luminescence, HEK293, S. stercoralis campaign (AID 720737); assay type: functional; conditions: read-out: IC50 (the source's name)
T1 sequence (P55055 whole entry): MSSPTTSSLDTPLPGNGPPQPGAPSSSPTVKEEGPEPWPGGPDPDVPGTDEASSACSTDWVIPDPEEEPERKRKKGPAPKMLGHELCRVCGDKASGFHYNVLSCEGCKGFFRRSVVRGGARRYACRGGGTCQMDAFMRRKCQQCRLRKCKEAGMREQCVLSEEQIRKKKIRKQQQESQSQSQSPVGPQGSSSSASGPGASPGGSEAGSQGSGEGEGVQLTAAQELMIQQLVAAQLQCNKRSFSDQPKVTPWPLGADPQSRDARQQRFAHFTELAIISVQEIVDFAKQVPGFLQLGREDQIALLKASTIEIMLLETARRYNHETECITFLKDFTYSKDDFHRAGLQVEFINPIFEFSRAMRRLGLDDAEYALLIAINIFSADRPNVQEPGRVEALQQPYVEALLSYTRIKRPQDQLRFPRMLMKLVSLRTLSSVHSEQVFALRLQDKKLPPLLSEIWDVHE

[12] = molecular target: T1, Oxysterols receptor LXR-beta; assay type: functional, cell-based
[13] = Luminescence-based cell-based high throughput dose response assay to identify activators of the DAF-12 from the parasite S. stercoralis (ssDAF-12).; assay type: functional
cells [14] = experiment: cells
Cytochrome P450 2C19 [15] = molecular target: T2, Cytochrome P450 2C19 (Homo sapiens, UniProt P33261); experiment: qHTS Assay for Inhibitors and Substrates of Cytochrome P450 2C19. [Related pubchem assays: 410 ]; assay type: ADME; conditions: read-out: Potency
T2 sequence (P33261 whole entry): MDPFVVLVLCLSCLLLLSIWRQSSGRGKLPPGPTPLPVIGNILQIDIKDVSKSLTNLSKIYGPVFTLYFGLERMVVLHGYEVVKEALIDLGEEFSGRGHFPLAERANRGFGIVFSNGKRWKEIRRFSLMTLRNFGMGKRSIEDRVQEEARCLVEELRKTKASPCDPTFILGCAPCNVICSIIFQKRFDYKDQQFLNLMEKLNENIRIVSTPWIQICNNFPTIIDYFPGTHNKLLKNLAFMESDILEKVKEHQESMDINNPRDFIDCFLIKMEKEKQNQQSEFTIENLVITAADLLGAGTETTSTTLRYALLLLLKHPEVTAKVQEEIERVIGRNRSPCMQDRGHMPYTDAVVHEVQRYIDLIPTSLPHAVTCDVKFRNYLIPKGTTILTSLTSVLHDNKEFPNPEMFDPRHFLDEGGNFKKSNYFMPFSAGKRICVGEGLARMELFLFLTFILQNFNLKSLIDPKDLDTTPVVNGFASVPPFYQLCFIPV

[16] = tested on: Streptococcus sp. 'group A'; experiment: growth inhibition of control SK(-) GAS strain, dose response, counter-screen for streptokinase expression inhibitor project, luminescence, kanamycin, BacTiterGlo, confirmation (AID 1900); assay type: functional, organism-based; conditions: Streptococcus sp. 'group A'
Streptokinase A = molecular target: T3, Streptokinase A (Streptococcus pyogenes serotype M1, UniProt P10520); experiment: S. pyogenes streptokinase expression inhibitors, potency, dose response, plasminogen activation absorbance, OD405 (AID 1914); assay type: functional, Streptococcus pyogenes M1 GAS;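 further: secreted streptokinase activity via plasminogen activation per viability signal from cell pellet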
T3 sequence (P10520 whole entry): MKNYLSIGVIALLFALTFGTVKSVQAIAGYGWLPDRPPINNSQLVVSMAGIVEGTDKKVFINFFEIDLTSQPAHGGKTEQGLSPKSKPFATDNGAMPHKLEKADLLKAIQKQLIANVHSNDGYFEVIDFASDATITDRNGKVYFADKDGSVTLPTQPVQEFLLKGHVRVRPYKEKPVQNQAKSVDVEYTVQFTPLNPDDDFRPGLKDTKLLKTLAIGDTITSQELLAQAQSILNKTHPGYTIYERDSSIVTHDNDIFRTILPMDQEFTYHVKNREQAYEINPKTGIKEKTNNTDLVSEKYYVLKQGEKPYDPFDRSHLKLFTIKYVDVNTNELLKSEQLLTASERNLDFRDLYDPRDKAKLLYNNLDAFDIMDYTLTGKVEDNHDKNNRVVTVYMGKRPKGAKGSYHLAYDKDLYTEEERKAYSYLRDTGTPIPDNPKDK

Cytochrome P450 3A4 [17] = molecular target: T4, Cytochrome P450 3A4 (Homo sapiens, UniProt P08684); conditions: Potency
T4 sequence (P08684 whole entry): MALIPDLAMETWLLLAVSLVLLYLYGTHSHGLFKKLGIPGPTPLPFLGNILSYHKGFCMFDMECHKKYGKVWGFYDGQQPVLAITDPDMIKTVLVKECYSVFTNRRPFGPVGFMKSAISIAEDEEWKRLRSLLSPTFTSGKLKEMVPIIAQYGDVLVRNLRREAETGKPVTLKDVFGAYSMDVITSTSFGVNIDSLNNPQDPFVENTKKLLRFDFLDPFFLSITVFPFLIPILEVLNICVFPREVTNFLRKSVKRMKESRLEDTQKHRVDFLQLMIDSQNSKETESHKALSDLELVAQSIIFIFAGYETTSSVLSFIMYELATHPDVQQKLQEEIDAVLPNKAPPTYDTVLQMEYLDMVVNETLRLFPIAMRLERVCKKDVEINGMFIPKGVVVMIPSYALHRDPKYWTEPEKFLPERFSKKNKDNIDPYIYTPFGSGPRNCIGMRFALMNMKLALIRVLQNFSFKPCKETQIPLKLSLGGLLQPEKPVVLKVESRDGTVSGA

[18] = molecular target: Voltage-gated inwardly rectifying potassium channel KCNH2 (Homo sapiens, UniProt Q12809); conditions: Potency;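 further: confirmatory quantitative high-throughput screen measuring inhibition of hERG channel activity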
Sequence of Voltage-gated inwardly rectifying potassium channel KCNH2 (Q12809 whole entry): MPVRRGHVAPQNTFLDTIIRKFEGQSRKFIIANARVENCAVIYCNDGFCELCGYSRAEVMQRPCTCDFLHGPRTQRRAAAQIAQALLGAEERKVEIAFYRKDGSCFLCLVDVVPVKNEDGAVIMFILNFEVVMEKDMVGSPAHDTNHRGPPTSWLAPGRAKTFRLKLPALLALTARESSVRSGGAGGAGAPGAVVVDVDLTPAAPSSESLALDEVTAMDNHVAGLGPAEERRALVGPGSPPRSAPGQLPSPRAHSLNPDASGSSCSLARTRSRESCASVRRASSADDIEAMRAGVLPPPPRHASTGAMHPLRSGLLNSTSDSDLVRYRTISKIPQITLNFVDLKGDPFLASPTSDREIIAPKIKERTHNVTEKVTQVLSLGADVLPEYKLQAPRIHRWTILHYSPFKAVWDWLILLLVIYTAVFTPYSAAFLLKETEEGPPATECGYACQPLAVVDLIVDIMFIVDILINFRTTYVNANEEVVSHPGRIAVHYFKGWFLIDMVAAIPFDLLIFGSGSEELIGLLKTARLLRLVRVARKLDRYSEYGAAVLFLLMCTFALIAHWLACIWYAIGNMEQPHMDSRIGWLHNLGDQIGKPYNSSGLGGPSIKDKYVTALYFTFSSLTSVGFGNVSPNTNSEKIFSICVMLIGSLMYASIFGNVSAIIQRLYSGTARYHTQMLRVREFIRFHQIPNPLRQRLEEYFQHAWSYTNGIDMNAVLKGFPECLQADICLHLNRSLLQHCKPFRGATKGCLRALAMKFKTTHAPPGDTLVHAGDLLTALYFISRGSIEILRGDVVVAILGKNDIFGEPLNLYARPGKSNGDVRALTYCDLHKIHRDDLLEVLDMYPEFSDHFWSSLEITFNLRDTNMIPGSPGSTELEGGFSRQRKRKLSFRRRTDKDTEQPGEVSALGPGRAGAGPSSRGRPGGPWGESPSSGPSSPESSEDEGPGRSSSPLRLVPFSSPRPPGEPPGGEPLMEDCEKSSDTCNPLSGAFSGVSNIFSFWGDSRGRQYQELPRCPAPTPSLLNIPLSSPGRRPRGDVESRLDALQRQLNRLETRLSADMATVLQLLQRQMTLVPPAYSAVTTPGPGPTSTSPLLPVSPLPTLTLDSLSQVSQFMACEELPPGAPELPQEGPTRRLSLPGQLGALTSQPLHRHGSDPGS

Cytochrome P450 3A4 [19] = molecular target: T4, Cytochrome P450 3A4
Cytochrome P450 2C19 [20] = molecular target: T2, Cytochrome P450 2C19; experiment: Cytochrome panel assay with activity outcomes. Panel member name: p450-cyp2c19 Compounds with AC50 equal or less than 10 uM are considered active; assay type: functional; conditions: read-out: AC50
Streptococcus = experiment: Group A Streptococcus viability loss, dose response, counter-screen for streptokinase expression inhibitor project, luminescence, BacTiterGlo (AID 1915); assay type: functional, organism-based; conditions: Streptococcus;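 further: potency for reduction of bacterial viability or growth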
[21] = HEK293 Cytotoxicity Assay Measured in Cell-Based System Using Plate Reader - 7071-01_Inhibitor_Dose_CherryPick_Activity_Set2.; assay type: functional
HEK293 = experiment: HEK293T cell cytotoxicity, dose response, cytotoxicity control, ATP luminescence, cherry-pick samples (AID 687005); assay type: functional, cell-based; conditions: Homo sapiens;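 further: cells exposed to compound for 48 hours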
A-375 [22] = experiment: MITF: Counter assay: A375 proliferation Measured in Cell-Based System Using Plate Reader - 2084-03_Inhibitor_Dose_DryPowder_Activity. [Related pubchem assays (depositor defined):AID488944]; assay type: functional; conditions: Homo sapiens
A-375 [23] = experiment: A375 melanoma cell viability reduction, dose response, counter-screen for MITF modulator project, cherry-pick samples, set 2 (AID 540335); assay type: functional, cell-based; conditions: Homo sapiens
[24] = molecular target: Heat shock protein HSP 90-alpha (Homo sapiens, UniProt P07900); experiment: Luminescence-based dose response biochemical high throughput screening assay for inhibitors of the Heat Shock Protein 90 (HSP90). [Related pubchem assays: 1831 (Summary AID.), 1846 (Confirmation screen.), 1789 (Primary screen.)]
[25] = A Cell-Based Confirmatory Screen for Compounds that Inhibit VEEV, TC-83 (3).; assay type: functional
[26] = A Cell-Based Confirmatory Screen for Compounds that Inhibit VEEV, TC-83 (5).; assay type: functional
[27] = A Cell-Based Confirmatory Screen for Compounds that Inhibit VEEV TC-83 (4).; assay type: functional
cells [28] = conditions: A549
[29] = HepG2 cell cytotoxicity, dose response, cytotoxicity control, ATP luminescence, cherry-pick, set 6 (AID 1053125); assay type: functional, cell-based
[30] = molecular target: SWI/SNF-related matrix-associated actin-dependent regulator of chromatin subfamily A member 2 (Homo sapiens, UniProt P51531); experiment: Luminescence-based cell-based high throughput dose response assay to identify activators of the function of SWI/SNF related, matrix associated, actin dependent regulator of chromatin, subfamily a, member 2 (SMARCA2, BRM).; assay type: functional
Sequence of SWI/SNF-related matrix-associated actin-dependent regulator of chromatin subfamily A member 2 (P51531 whole entry): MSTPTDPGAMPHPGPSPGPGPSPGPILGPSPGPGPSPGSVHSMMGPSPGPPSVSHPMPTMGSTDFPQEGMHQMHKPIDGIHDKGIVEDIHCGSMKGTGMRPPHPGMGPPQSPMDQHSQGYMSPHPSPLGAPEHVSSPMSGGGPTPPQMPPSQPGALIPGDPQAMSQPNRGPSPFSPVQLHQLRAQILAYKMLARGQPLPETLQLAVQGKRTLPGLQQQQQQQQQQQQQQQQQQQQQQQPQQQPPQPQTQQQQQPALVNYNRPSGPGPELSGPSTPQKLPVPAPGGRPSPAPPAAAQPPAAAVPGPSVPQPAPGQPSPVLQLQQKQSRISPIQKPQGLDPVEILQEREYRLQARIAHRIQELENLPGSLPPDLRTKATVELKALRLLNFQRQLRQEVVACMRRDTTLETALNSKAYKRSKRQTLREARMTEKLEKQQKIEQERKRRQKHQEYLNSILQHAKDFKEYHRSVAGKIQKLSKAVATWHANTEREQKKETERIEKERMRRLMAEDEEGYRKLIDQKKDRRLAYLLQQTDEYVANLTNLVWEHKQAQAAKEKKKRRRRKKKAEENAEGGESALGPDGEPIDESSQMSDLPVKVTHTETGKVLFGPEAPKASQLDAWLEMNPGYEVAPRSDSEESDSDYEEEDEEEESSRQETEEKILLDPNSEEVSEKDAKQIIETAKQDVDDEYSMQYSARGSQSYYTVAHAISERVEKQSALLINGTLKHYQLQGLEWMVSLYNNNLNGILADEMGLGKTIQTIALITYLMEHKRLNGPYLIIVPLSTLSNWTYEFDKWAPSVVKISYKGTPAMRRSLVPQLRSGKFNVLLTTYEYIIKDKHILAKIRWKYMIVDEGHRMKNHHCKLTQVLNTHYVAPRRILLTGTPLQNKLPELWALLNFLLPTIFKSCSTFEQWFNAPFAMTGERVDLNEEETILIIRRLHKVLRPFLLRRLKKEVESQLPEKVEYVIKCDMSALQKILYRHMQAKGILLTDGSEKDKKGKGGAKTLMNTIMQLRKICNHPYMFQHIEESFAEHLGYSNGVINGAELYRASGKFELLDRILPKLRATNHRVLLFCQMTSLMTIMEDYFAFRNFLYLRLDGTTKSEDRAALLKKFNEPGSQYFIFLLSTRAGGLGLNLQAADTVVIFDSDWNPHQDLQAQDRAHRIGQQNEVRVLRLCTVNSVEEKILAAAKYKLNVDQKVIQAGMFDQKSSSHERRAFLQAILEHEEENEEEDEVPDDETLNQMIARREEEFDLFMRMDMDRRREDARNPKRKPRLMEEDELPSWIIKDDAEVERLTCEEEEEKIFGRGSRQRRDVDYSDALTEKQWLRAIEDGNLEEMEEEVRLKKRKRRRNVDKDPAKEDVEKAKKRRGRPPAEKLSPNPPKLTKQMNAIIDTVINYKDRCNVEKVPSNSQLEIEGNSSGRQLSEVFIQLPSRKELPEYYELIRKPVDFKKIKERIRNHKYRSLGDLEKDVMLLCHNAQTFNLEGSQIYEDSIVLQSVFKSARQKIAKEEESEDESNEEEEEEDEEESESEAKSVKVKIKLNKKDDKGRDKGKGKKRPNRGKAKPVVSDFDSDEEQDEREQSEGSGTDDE

[31] = Counterscreen for activators of the function of SWI/SNF related, matrix associated, actin dependent regulator of chromatin, subfamily a, member 2 (SMARCA2, BRM): Luminescence-based cell-based high throughput dose response assay to identify non-selective compounds using the VP16 reporter assay.; assay type: functional
cells [32] = conditions: HEK293; remark: listed apart in the source;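 further: cells exposed to compound for 48 hours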
[33] = molecular target: G-protein coupled receptor 183 (Homo sapiens, UniProt P32249); experiment: SAR confirmation of small molecule antagonists of the EBI2 receptor via a luminescent beta-arrestin assa.; assay type: functional
Sequence of G-protein coupled receptor 183 (P32249 whole entry): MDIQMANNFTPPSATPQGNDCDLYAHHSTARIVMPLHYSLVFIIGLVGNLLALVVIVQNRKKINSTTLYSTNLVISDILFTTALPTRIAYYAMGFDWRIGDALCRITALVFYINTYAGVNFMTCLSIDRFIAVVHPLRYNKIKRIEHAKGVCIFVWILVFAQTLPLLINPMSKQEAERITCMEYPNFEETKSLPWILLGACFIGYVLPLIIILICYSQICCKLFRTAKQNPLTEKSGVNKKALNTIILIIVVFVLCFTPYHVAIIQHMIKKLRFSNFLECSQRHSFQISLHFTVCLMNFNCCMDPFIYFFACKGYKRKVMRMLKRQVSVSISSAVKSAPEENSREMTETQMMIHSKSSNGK

## c1ccc(COc2ccc(OCCn3cnc4ccccc43)cc2)cc1
Cells [1]
  AC50: > 52 µM (inactive)
[2]
  AC50: > 52 µM (inactive)

## C[S+](CC[C@H](N)C(=O)O)C[C@H]1O[C@@H](n2cnc3c(N)ncnc32)[C@H](O)[C@H]1O (stereo partly specified)
[3]
  IC50: > 20 µM (inactive)
[4]
  IC50: > 20 µM (inactive)
[5]
  IC50: > 20 µM (inactive)
[6]
  IC50: > 20 µM (inactive)
[7]
  IC50: > 20 µM (inactive)
[8]
  IC50: > 20 µM (inactive)
[9]
  IC50: > 20 µM (inactive)

## COc1c(OC(C)=O)ccc(/C=C/c2ccc3ccccc3n2)c1[N+](=O)[O-]
[10]
  CC50: 33.2 µM (active)

## Clc1ccc(-c2nc3n(n2)Cc2ccccc2-3)cc1
[11]
  EC50: > 67.5 µM (inactive)
[12]
  EC50: > 67.5 µM (inactive)
[13]
  IC50: > 67.5 µM (inactive)
Cells [14]
  EC50: > 67.5 µM (inactive)

## CCCN(CC1CC1)c1nc(C)nc(Nc2c(Cl)cc(Cl)cc2Cl)c1Cl
Cytochrome P450 2C19 [15]
  AC50: 7.94 µM (inconclusive)
[16]
  EC50: 1.39 µM (active)
Streptokinase A
  EC50: 1.31 µM (active)
Cytochrome P450 3A4 [17]
  AC50: 12.6 µM (inconclusive)
[18]
  AC50: 14.1 µM (inconclusive)
Cytochrome P450 3A4 [19]
  AC50: 15.8 µM (inconclusive)
Cytochrome P450 2C19 [20]
  AC50: 31.6 µM (inconclusive)
Streptococcus
  EC50: 15.2 µM (active)

## CCCN1C[C@H](C)[C@@H](OC)CN(C)C(=O)c2cc(NC(=O)c3cccc(F)c3)ccc2OC[C@@H]1C
[21]
  AC50: 19.8 µM (active)
HEK293
  AC50: 19.8 µM (active)

## COC(=O)c1ccc(COc2ccc3c(c2)CCC3)o1
A-375 [22]
  AC50: > 35 µM (active)
A-375 [23]
  AC50: > 35 µM (active)
[24]
  IC50: > 7 µM (active)

## CN1CCN(Cc2nc3ccc([N+](=O)[O-])cc3c(=O)n2-c2ccccc2F)CC1
[25]
  IC50: < 720 nM (active)
[26]
  IC50: 650 nM (active)
[27]
  IC50: 740 nM (active)

## N#Cc1ccc(/C=C\c2[nH]ccc3c4ccccc4nc2-3)cc1
Cells [28]
  AC50: 24.2 µM (active)
[29]
  AC50: 40.7 µM (active)
[30]
  EC50: > 91.2 µM (inactive)
[31]
  EC50: > 91.2 µM (inactive)
Cells [32]
  AC50: > 52 µM (inactive)

## COc1cc(CN2CCN(C(=O)/C=C/c3ccc(Br)cc3)CC2)cc(OC)c1
[33]
  IC50: 3.64 nM (active)
